This note sets out measurements from ChEMBL document CHEMBL1201862, “PubChem BioAssay data set” (2004).

Molecules are shown by their SMILES.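 Results reflect a 48-hour exposure of cells in 96-well plates to compound at five concentrations. The concentration for 50% growth inhibition is given as GI50.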 Activity calls are given as the source filed them. Cut-off read from the data, not from the text of the source: active = GI50 up to about 1.1 µM and inactive = higher.

Among the test systems are SNB-19; DU-145; COLO 205; HT-29; KM12; NCI/ADR-RES; SNB-75; MDA-MB-435; RPMI-8226; CAKI-1; EKVX; CCRF-CEM; HOP-62; NCI-H522; UACC-257; RXF 393; BT-549; HCC 2998; SF-539.
Assay in all cases: inhibition of tumour cell growth, NCI panel, 48 h

Take `COC(=O)C1CC2C=CC1N(C(=O)OCc1ccccc1)C2` (configuration not stated): the GI50 in the assay with SNB-19, in the assay with DU-145, with COLO 205, with HT-29, with KM12 and in the assay with NCI/ADR-RES was > 100 µM (inactive) each time. Moreover, the GI50 was > 100 µM (inactive) with SNB-75; > 100 µM (inactive) in the assay with MDA-MB-435; > 100 µM (inactive) with RPMI-8226; > 100 µM (inactive) in the assay with CAKI-1; 91.4 µM (inactive) with EKVX; > 100 µM (inactive) with CCRF-CEM. Further, the GI50 was > 100 µM (inactive) in the assay on HOP-62; 0.82 µM (active) in the assay on NCI-H522; > 100 µM (inactive) in the assay with UACC-257; > 100 µM (inactive) in the assay on RXF 393; > 100 µM (inactive) with BT-549; > 100 µM (inactive) with HCC 2998. Moreover, the GI50 in the assay on SF-539 is > 100 µM (inactive).

On to `COc1cccc(Nc2n[nH]c(NS(=O)(=O)c3cc(C)c(Cl)cc3S)n2)c1`, for which the GI50 in the assay with SNB-19, with DU-145, in the assay with COLO 205, with HT-29, in the assay with KM12 and in the assay with NCI/ADR-RES was > 100 µM (inactive) throughout. Also, the GI50 in the assay on SNB-75, with MDA-MB-435, in the assay with RPMI-8226, in the assay with CAKI-1, in the assay with EKVX and with CCRF-CEM was > 100 µM (inactive) throughout. In addition, the GI50 with HOP-62, in the assay with NCI-H522, in the assay with UACC-257, in the assay on RXF 393, in the assay with BT-549 and in the assay on HCC 2998 was > 100 µM (inactive) throughout. Moreover, the GI50 in the assay with SF-539 was > 100 µM (inactive).

As for `COC1(OC)C2(Cl)CCC1(Cl)C(OC(C)=O)C2` (configuration not stated), the GI50 in the assay with SNB-19, with DU-145, in the assay on COLO 205, with HT-29, in the assay on KM12 and in the assay on NCI/ADR-RES was > 100 µM (inactive) each time. In addition, the GI50 in the assay with SNB-75, in the assay on MDA-MB-435, in the assay with RPMI-8226, with CAKI-1, with EKVX and in the assay on CCRF-CEM was > 100 µM (inactive) in each case. The GI50 with HOP-62 is > 100 µM (inactive); with NCI-H522, > 74.1 µM (inactive); in the assay on UACC-257 it was > 100 µM (inactive); in the assay with RXF 393 it was > 100 µM (inactive); in the assay with BT-549, > 100 µM (inactive); in the assay with HCC 2998 it was > 100 µM (inactive). Further, the GI50 in the assay with SF-539 is > 100 µM (inactive).

For the compound `CC(=C(C(=O)O)C(=O)O)c1cc(-c2cccs2)cc(-c2ccc(Cl)cc2)c1O`, the GI50 in the assay with SNB-19 is 15.7 µM (inactive); in the assay with DU-145, 14.4 µM (inactive); with COLO 205 it was 22.4 µM (inactive); in the assay with HT-29, 17.3 µM (inactive); in the assay on KM12 it was 9.04 µM (inactive); in the assay on NCI/ADR-RES, 20.3 µM (inactive). The GI50 in the assay on SNB-75 is 18 µM (inactive); with MDA-MB-435, 15.6 µM (inactive); in the assay with RPMI-8226, 2.78 µM (inactive); with CAKI-1, 17.4 µM (inactive); in the assay on EKVX it was 17.3 µM (inactive); in the assay on CCRF-CEM it was 18.7 µM (inactive). The GI50 in the assay on HOP-62 is 24.1 µM (inactive); in the assay with NCI-H522, 14.3 µM (inactive); with UACC-257 it was 16.7 µM (inactive); in the assay on RXF 393, 14 µM (inactive); in the assay with BT-549 it was 15.7 µM (inactive); in the assay with HCC 2998, 18.5 µM (inactive). Further, in the assay on SF-539, the GI50 was 14.6 µM (inactive).

As to `Oc1cccc2cc(Cl)cnc12`, the GI50 in the assay with SNB-19 was > 32.4 µM (inactive); in the assay on DU-145, 31.5 µM (inactive); with COLO 205, 31.4 µM (inactive); with HT-29, 28.2 µM (inactive); in the assay on KM12, 14.8 µM (inactive); in the assay on NCI/ADR-RES, 3.48 µM (inactive). Besides, the GI50 in the assay with SNB-75 was 28.1 µM (inactive); in the assay with MDA-MB-435, 14.7 µM (inactive); in the assay on RPMI-8226 it was 4.91 µM (inactive); with CAKI-1 it was 55.1 µM (inactive); in the assay with EKVX, 4.88 µM (inactive); with CCRF-CEM it was 2.45 µM (inactive). The GI50 was 5.77 µM (inactive) with HOP-62; 2.75 µM (inactive) in the assay with NCI-H522; 6.27 µM (inactive) in the assay on UACC-257; 12.3 µM (inactive) with RXF 393; 22.6 µM (inactive) with BT-549; 27.1 µM (inactive) in the assay on HCC 2998. For the same compound, the GI50 in the assay on SF-539 is 10.3 µM (inactive).

Take `c1ccc([P+](CC[P+](c2ccccc2)(c2ccccc2)c2ccccc2)(c2ccccc2)c2ccccc2)cc1`: the GI50 was 47.4 µM (inactive) in the assay with SNB-19; 48.9 µM (inactive) in the assay on DU-145; 8.81 µM (inactive) in the assay with COLO 205; 23.4 µM (inactive) with HT-29; 15.2 µM (inactive) with KM12; 61.4 µM (inactive) in the assay with NCI/ADR-RES. Also, the GI50 is 20.1 µM (inactive) in the assay on SNB-75; 9.64 µM (inactive) in the assay on MDA-MB-435; 0.693 µM (active) in the assay with RPMI-8226; 61.8 µM (inactive) in the assay on CAKI-1; 4.76 µM (inactive) in the assay with EKVX; 0.25 µM (active) in the assay with CCRF-CEM. The GI50 with HOP-62 was 26.4 µM (inactive); in the assay with NCI-H522 it was 3.1 µM (inactive); in the assay on UACC-257 it was 1.19 µM (inactive); in the assay on RXF 393 it was 27.4 µM (inactive); in the assay on BT-549 it was 42.3 µM (inactive); in the assay on HCC 2998, 7.78 µM (inactive). The GI50 in the assay on SF-539 is 9.42 µM (inactive).

Take `CCSC(=O)/C=C1\CN(C(=O)OC(C)(C)C)C1C(=O)OC(C)(C)C` (configuration not stated): the GI50 in the assay with SNB-19 is 12.1 µM (inactive); in the assay with DU-145, 4.95 µM (inactive); in the assay on COLO 205 it was 2.02 µM (inactive); in the assay with HT-29, 4.23 µM (inactive); with KM12, 3.38 µM (inactive); in the assay on NCI/ADR-RES it was 2.74 µM (inactive). Moreover, the GI50 is 2.59 µM (inactive) in the assay with SNB-75; 2.74 µM (inactive) in the assay on MDA-MB-435; 1.87 µM (inactive) in the assay with RPMI-8226; 6.56 µM (inactive) with CAKI-1; 10.5 µM (inactive) in the assay on EKVX; 1.27 µM (inactive) in the assay on CCRF-CEM. Besides, the GI50 is 14.1 µM (inactive) in the assay with HOP-62; 2.49 µM (inactive) with NCI-H522; 4.21 µM (inactive) with UACC-257; 1.91 µM (inactive) in the assay with RXF 393; 10.3 µM (inactive) in the assay with BT-549; 5.38 µM (inactive) in the assay with HCC 2998. In addition, the GI50 with SF-539 is 3.03 µM (inactive).

Regarding `O=c1cc(/N=N\c2ccc(Br)cc2)[nH]c(=S)[nH]1`, the GI50 is 61 µM (inactive) in the assay on SNB-19; 61.1 µM (inactive) with DU-145; 21.9 µM (inactive) in the assay with COLO 205; 18.4 µM (inactive) in the assay with HT-29; 45.1 µM (inactive) in the assay with KM12; 61.2 µM (inactive) in the assay on NCI/ADR-RES. Also, the GI50 in the assay on SNB-75 was > 100 µM (inactive); in the assay on MDA-MB-435, 19.7 µM (inactive); with RPMI-8226 it was 15.9 µM (inactive); in the assay on CAKI-1, 10.4 µM (inactive); in the assay with EKVX, 19.8 µM (inactive); with CCRF-CEM, 14.6 µM (inactive). Besides, the GI50 in the assay with HOP-62 is > 100 µM (inactive); in the assay with NCI-H522, 15.5 µM (inactive); in the assay on UACC-257, 27 µM (inactive); in the assay with RXF 393, 16.9 µM (inactive); in the assay on BT-549 it was 56.6 µM (inactive); with HCC 2998 it was 17.8 µM (inactive). Moreover, the GI50 in the assay on SF-539 is 70.1 µM (inactive).
